# According to patent US11208412B2 (DAEGU-GYEONGBUK MEDICAL INNOVATION FOUNDATION, priority 2017, dated 2021):
# Assays:
# Experiment in all cases: Kinase selectivity, DiscoverX scanMAX Kinase assay panel (% control)
# Format in all cases: binding
# [1] = target: T1, kinases of the scanMAX Kinase assay panel (Homo sapiens, UniProt Q9UHD2); details: kinase TBK1; 1 uM in DMSO
# T1 construct: purchased DiscoverX Co. (contract measurement) scanMAX Kinase assay panel
# T1 sequence (Q9UHD2 1-729): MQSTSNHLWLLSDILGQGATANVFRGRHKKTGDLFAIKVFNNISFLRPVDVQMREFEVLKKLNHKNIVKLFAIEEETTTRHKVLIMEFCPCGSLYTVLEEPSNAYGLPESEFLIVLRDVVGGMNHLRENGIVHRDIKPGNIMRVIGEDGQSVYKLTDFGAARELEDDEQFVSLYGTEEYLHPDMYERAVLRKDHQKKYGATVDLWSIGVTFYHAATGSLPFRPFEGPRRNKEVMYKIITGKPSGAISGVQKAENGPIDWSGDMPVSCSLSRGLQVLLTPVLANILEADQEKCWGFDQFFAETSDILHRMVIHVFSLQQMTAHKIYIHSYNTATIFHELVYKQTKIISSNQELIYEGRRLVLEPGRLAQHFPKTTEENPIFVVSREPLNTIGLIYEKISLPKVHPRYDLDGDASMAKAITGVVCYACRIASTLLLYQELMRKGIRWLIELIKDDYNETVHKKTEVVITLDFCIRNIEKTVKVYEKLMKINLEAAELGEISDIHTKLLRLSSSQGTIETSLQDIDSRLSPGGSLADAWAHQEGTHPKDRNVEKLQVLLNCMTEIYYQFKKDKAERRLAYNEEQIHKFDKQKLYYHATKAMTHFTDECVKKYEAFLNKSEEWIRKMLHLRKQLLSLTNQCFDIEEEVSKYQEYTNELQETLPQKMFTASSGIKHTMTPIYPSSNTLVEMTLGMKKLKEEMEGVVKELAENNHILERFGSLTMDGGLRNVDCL
# How it was run: (§1)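 A 1 uM DMSO solution of compound was applied across the panel kinases, and results were expressed as % control relative to DMSO (100%) and a positive control (0%).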
# [2] = target: T2, kinases of the scanMAX Kinase assay panel (Homo sapiens, UniProt P16234); details: PDGFRA; 1 uM
# T2 construct: purchased DiscoverX Co. (contract measurement) scanMAX Kinase assay panel
# T2 sequence (P16234 24-1089): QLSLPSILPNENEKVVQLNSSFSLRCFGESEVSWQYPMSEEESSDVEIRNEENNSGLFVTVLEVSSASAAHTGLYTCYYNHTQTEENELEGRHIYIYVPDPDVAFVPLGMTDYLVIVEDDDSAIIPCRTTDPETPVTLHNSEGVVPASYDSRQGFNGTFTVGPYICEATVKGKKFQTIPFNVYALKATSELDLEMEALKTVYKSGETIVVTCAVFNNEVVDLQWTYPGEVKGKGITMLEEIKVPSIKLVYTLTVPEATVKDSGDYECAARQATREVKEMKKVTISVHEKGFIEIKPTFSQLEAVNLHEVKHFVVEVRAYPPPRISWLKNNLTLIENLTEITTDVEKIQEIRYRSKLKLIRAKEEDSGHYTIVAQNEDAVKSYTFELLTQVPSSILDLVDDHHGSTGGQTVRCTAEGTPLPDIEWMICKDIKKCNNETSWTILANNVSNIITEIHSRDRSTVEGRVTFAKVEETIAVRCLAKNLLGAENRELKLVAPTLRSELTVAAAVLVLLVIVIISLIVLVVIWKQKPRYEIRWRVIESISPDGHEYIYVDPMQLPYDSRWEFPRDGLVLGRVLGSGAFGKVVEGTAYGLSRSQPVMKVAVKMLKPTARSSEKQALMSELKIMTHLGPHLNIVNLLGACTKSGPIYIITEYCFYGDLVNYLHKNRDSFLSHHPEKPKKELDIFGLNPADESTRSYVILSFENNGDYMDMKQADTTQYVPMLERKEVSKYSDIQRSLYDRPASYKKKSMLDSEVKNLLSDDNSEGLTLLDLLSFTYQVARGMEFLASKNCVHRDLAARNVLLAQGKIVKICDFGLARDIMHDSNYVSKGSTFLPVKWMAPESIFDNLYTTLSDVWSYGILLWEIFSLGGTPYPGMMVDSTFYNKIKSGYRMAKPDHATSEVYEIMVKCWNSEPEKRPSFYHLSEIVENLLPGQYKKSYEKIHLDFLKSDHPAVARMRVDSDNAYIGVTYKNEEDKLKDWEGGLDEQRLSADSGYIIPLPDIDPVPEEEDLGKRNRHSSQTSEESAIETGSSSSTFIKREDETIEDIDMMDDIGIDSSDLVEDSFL
# How it was run: as §1
# [3] = target: T3, kinases of the scanMAX Kinase assay panel (Homo sapiens, UniProt P54762); details: EPHB1; 1 uM
# T3 construct: purchased DiscoverX Co. (contract measurement) scanMAX Kinase assay panel
# T3 sequence (P54762 18-984): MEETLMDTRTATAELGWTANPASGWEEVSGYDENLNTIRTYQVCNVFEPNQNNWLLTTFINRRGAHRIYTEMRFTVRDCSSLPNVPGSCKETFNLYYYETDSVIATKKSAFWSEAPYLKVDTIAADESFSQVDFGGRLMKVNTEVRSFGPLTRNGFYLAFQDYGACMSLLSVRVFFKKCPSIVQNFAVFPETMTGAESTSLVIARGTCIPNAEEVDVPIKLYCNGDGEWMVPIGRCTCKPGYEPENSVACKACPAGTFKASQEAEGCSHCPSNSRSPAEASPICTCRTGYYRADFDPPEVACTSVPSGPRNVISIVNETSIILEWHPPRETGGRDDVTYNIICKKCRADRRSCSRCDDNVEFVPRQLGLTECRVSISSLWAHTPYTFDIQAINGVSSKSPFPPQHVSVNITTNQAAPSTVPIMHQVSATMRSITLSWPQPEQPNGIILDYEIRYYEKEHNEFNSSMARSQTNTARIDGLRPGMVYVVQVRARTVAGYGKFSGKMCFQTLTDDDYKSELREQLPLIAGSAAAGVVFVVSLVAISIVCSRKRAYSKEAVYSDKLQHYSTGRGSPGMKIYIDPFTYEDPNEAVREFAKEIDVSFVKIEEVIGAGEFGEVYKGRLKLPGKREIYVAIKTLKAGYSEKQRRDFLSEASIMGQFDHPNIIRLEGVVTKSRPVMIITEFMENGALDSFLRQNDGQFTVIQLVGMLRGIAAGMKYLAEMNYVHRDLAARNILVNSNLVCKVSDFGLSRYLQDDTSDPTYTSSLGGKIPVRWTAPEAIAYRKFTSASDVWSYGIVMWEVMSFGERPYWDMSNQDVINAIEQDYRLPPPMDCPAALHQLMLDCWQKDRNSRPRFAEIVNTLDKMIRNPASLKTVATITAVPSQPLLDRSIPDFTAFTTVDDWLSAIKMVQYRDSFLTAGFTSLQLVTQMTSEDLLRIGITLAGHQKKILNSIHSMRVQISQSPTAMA
# How it was run: as §1
# [4] = target: T4, kinases of the scanMAX Kinase assay panel (Homo sapiens, UniProt Q9UM73, L1196M); details: ALK(L1196M); 1 uM
# T4 construct: purchased DiscoverX Co. (contract measurement) scanMAX Kinase assay panel
# T4 sequence (Q9UM73 19-1620 L1196M): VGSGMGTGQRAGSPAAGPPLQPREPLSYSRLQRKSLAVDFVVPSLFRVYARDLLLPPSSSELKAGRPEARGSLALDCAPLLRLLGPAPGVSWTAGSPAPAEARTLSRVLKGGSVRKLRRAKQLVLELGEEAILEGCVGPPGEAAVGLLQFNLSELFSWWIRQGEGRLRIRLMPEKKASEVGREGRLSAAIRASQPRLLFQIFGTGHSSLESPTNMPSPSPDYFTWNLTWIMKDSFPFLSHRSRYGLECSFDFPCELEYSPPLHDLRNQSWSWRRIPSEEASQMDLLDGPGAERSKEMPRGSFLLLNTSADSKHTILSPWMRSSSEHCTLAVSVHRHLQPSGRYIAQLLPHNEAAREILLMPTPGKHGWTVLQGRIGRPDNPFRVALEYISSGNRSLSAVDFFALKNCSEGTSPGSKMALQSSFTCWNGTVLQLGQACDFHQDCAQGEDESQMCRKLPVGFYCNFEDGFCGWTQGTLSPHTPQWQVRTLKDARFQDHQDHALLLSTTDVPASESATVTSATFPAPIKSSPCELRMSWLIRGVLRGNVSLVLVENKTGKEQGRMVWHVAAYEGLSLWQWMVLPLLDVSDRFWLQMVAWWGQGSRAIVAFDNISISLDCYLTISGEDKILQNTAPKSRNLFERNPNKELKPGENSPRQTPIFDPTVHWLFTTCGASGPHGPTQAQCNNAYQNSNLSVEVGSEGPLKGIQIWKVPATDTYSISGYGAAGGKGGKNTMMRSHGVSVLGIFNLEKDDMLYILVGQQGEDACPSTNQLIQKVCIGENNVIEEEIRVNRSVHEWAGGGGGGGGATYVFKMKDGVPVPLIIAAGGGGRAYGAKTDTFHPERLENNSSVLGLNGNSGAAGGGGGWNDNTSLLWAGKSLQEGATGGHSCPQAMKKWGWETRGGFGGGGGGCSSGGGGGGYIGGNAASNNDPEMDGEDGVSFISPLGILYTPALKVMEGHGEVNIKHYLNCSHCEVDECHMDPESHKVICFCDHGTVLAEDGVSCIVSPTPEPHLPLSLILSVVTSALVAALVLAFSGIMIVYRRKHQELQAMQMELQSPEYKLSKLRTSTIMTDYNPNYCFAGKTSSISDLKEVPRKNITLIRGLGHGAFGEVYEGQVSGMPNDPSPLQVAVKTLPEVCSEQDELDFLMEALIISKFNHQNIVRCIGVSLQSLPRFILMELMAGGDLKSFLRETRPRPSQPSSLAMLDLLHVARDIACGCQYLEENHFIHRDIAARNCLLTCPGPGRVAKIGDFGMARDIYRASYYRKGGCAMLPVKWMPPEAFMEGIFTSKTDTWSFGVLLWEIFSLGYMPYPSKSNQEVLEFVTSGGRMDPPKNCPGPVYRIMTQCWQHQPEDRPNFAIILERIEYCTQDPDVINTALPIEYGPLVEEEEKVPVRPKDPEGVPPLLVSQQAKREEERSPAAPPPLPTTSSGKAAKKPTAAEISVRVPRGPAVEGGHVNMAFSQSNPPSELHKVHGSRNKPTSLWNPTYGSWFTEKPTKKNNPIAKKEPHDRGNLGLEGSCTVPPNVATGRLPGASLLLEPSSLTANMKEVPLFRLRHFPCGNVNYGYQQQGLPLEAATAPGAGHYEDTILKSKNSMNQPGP
# How it was run: as §1
# [5] = target: T5, kinases of the scanMAX Kinase assay panel (Homo sapiens, UniProt P04049); details: RAF1; 1 uM
# T5 construct: purchased DiscoverX Co. (contract measurement) scanMAX Kinase assay panel
# T5 sequence (P04049 whole entry): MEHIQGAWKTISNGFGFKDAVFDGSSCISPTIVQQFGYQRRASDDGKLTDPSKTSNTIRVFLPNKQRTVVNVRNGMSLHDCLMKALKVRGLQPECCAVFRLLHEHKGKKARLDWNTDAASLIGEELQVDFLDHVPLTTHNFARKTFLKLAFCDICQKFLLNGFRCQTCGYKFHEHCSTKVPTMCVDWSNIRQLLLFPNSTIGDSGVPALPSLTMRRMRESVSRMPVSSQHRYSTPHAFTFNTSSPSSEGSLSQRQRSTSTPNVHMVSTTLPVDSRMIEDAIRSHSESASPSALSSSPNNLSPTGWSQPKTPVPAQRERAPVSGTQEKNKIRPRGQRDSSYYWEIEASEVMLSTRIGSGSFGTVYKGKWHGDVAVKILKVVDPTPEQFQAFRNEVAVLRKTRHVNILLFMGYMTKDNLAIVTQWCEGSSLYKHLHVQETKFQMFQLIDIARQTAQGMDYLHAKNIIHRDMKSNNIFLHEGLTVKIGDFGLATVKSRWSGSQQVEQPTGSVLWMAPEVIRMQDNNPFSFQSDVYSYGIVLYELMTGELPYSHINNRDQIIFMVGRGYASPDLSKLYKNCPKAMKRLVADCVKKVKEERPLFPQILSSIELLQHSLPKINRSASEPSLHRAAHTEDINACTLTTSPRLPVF
# How it was run: as §1
# [6] = target: T6, kinases of the scanMAX Kinase assay panel (Homo sapiens, UniProt P43405); details: kinase SYK; 1 uM in DMSO
# T6 construct: purchased DiscoverX Co. (contract measurement) scanMAX Kinase assay panel
# How it was run: as §1
# [7] = target: T7, kinases of the scanMAX Kinase assay panel (Homo sapiens, UniProt P07949, V804M); details: kinase RET(V804M); 1 uM in DMSO
# T7 construct: purchased DiscoverX Co. (contract measurement) scanMAX Kinase assay panel
# How it was run: as §1
# [8] = target: T8, kinases of the scanMAX Kinase assay panel (Homo sapiens, UniProt P07947); details: kinase YES; 1 uM in DMSO
# T8 construct: purchased DiscoverX Co. (contract measurement) scanMAX Kinase assay panel
# T8 sequence (P07947 whole entry): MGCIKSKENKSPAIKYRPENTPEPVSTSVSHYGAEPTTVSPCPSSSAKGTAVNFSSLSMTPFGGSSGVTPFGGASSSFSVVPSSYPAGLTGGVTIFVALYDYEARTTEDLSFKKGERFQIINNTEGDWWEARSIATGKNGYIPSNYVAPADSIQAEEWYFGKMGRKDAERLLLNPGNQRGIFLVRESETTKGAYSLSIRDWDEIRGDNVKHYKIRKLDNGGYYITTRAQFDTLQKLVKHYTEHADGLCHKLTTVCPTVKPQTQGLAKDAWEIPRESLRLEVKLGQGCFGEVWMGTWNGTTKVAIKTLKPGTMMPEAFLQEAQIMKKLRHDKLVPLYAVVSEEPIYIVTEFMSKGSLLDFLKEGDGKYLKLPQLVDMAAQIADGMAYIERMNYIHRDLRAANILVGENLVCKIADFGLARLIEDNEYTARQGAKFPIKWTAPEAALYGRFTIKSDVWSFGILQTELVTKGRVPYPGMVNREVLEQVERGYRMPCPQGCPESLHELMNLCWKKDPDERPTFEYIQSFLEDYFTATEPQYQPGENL
# How it was run: as §1
# [9] = target: T9, kinases of the scanMAX Kinase assay panel (Homo sapiens, UniProt Q13177); details: PAK2; 1 uM
# T9 construct: purchased DiscoverX Co. (contract measurement) scanMAX Kinase assay panel
# T9 sequence (Q13177 whole entry): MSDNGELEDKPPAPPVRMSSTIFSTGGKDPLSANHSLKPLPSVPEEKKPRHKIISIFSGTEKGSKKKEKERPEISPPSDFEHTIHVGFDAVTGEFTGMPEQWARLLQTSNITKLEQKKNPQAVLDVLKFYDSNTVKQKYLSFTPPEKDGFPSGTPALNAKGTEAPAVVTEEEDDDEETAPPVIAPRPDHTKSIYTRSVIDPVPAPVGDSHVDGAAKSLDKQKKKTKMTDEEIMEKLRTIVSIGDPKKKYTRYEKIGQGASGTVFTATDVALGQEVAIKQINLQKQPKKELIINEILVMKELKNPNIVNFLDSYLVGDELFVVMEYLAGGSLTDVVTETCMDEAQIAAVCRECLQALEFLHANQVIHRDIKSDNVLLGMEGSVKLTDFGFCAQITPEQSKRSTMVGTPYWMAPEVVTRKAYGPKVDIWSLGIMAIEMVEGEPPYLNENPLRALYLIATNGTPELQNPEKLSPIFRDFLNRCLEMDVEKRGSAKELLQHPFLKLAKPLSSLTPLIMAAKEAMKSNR
# How it was run: as §1
Structure (SMILES),remaining binding at 1 µM [1] [%],remaining binding at 1 µM [2] [%],remaining binding at 1 µM [3] [%],remaining binding at 1 µM [4] [%],remaining binding at 1 µM [5] [%],remaining binding at 1 µM [6] [%],remaining binding at 1 µM [7] [%],remaining binding at 1 µM [8] [%],remaining binding at 1 µM [9] [%]
"CCNc1nc(Nc2ccc(C(=O)N3CCC(N4CCOCC4)CC3)cc2OC)nc2[nH]cc(C(F)(F)F)c12 [Example 104, (4-((4-(ethylamino)-5-(trifluoromethyl)-7H-pyrrolo[2,3-d]pyrimidine-2-yl)amino)-3-methoxyphenyl)(4-morpholinopiperidine-1-yl)methanone]",84,88,100,0.75,100,70,87,100,71
"CC1(Nc2nc(Nc3cnn([C@H]4CCN(C5COC5)C[C@@H]4F)c3Cl)nc3[nH]cc(C#N)c23)CC1 [Example 52, 2-((5-chloro-1-((3S,4S)-3-fluoro-1-(oxetane-3-yl)piperidine-4-yl)-1H-pyrazole-4-yl)amino)((1-methylcyclopropyl)amino)-7H-pyrrolo[2,3-d]pyrimidine-5-carbonitrile]",4.8,9.7,41,9.9,100,0.4,0,10,45
"CNc1nc(Nc2ccc(C(=O)N3CCOCC3)cc2OC)nc2[nH]cc(C#N)c12 [Example 1, 2-((2-methoxy-4-(morpholine-4-carbonyl)phenyl)amino)-4-(methylamino)-7H-pyrrolo[2,3-d]pyrimidine-5-carbonitrile]",85,15,100,33,95,62,89,100,95
